Results reported in US5608091A, “Quinizarin compound, method for production thereof, and use therefor” (Nippon Shokubai Co., Ltd., priority 1993, dated 1997).

Legend:
Color tone of the dye = assay type: physicochemical; conditions: Tables 1-9
[1] = Visible absorption spectrum (λmax, ε); assay type: physicochemical; conditions: in chloroform; for ε: at λ max, in M-1 cm-1 (unit assumed)
[2] = Solubility in toluene and methyl ethyl ketone, three-point scale; assay type: physicochemical
Source text: In these tables, the solubility is rated on the three-point scale, wherein Δ stands for a solubility of less than 1% by weight, .largecircle. for a solubility in the approximate range of 1 to 3% by weight, and .circleincircle. for a solubility of not less than 3% by weight.

[3] = Stability in storage of thermal transfer recorded images; conditions: 50° C., 50 hours
Protocol: The recorded images obtained as described above were left standing in an atmosphere kept at 50° C. for 50 hours and, after the standing, were examined to determine the presence or absence of change caused on the images owing to the standing.
(§1) Ink compositions were prepared, transfer sheets produced, and transfer recording carried out by following the procedure of Example 89 while using the dye shown in Table 11 instead. The recorded images were tested for lightfastness and then for stability in storage in the same manner as in Example 89.
as §1, with “dyes” for “dye”, “12” for “11”

| SMILES | Color tone (Color tone of the dye) | λ max [1] | ε [1] | Stability in storage [3] | Solubility in methyl ethyl ketone [2] | Solubility in toluene [2] |
| --- | --- | --- | --- | --- | --- | --- |
| CCCCCCCCOc1c(F)c2c(c(F)c1Nc1ccc([N+](=O)[O-])cc1)C(=O)c1c(O)ccc(O)c1C2=O [(41)] | Magenta | 524 nm | 13200 | Good | .circleincircle. (a solubility of not less than 3% by weight) | .circleincircle. (a solubility of not less than 3% by weight) |
| O=C1c2c(O)ccc(O)c2C(=O)c2c(F)c(Nc3c(Cl)cccc3Cl)c(F)c(F)c21 [(22)] | Magenta | 521 nm | 9470 | Good | .largecircle. (a solubility in the approximate range of 1 to 3% by weight) | .circleincircle. (a solubility of not less than 3% by weight) |
| CCCCCCCCOc1c(F)c2c(c(F)c1Nc1ccc(C(=O)OCCCC)cc1)C(=O)c1c(O)ccc(O)c1C2=O [(36)] | Magenta | 534 nm | 12700 | Good | .circleincircle. (a solubility of not less than 3% by weight) | .circleincircle. (a solubility of not less than 3% by weight) |

Second part, led by results:

| Color tone (Color tone of the dye) | λ max [1] | ε [1] | Stability in storage [3] | SMILES | Solubility in methyl ethyl ketone [2] | Solubility in toluene [2] |
| --- | --- | --- | --- | --- | --- | --- |
| Magenta | 524 nm | 15400 | Good | CCCCCCCCOc1c(F)c2c(c(F)c1Nc1ccc(C#N)cc1)C(=O)c1c(O)ccc(O)c1C2=O [(45)] | .circleincircle. (a solubility of not less than 3% by weight) | .circleincircle. (a solubility of not less than 3% by weight) |
| Cyan | 657 nm | 3000 | Good | CCc1cccc(CC)c1Nc1c(F)c2c(c(F)c1Nc1c(CC)cccc1CC)C(=O)c1c(O)ccc(O)c1C2=O [(137)] | .largecircle. (a solubility in the approximate range of 1 to 3% by weight) | .circleincircle. (a solubility of not less than 3% by weight) |
| Cyan | 660 nm | 26000 | Good | CC(C)c1cccc(C(C)C)c1Nc1c(F)c2c(c(F)c1Nc1c(C(C)C)cccc1C(C)C)C(=O)c1c(O)ccc(O)c1C2=O [(139)] | .largecircle. (a solubility in the approximate range of 1 to 3% by weight) | .circleincircle. (a solubility of not less than 3% by weight) |
